Laboratory results: PubChem BioAssay (NCI)
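Results reflect a 48-hour exposure of cells in 96-well plates to compound at five concentrations. The concentration for 50% growth inhibition is given as GI50. The concentration for full growth arrest is given as TGI.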

Assays:
Experiment in all cases: growth of human tumour cells (NCI), 48 h
[1] = tested on: HT29 colon
[2] = tested on: SR leukemia
[3] = tested on: SF-539 CNS
[4] = tested on: LOX IMVI melanoma
[5] = tested on: RXF 393 renal
[6] = tested on: SK-MEL-28 melanoma
[7] = tested on: NCI-H23 lung
[8] = tested on: M14 melanoma
[9] = tested on: MDA-MB-435
[10] = tested on: TK-10 renal
[11] = tested on: HOP-92 NSCLC
[12] = tested on: BT-549 breast
[13] = tested on: SNB-75 CNS
[14] = tested on: SF-268 CNS
[15] = tested on: OVCAR-3 ovarian
[16] = tested on: A549 NSCLC
[17] = tested on: OVCAR-4 ovarian
[18] = tested on: MCF7 breast
[19] = tested on: SW-620 colon
[20] = tested on: UO-31 renal
[21] = tested on: SK-MEL-2 melanoma
[22] = tested on: DU-145 prostate
[23] = tested on: NCI-H226 lung
[24] = tested on: HCT-116 colon
[25] = tested on: PC-3 prostate
[26] = tested on: NCI-H522 lung
[27] = tested on: ACHN renal
[28] = tested on: COLO 205 colon
[29] = tested on: EKVX NSCLC
[30] = tested on: MOLT-4 leukemia
[31] = tested on: T-47D breast
[32] = tested on: IGROV1 ovarian
[33] = tested on: OVCAR-5 ovarian
[34] = tested on: CAKI-1 renal
[35] = tested on: UACC-257 melanoma
[36] = tested on: 786-0 renal
[37] = tested on: HCT-15 colon
[38] = tested on: HS 578T breast
[39] = tested on: HOP-62 NSCLC
[40] = tested on: SNB-19 CNS
[41] = tested on: HCC-2998 colon
[42] = tested on: SF-295 CNS
[43] = tested on: MDA-MB-231 breast
[44] = tested on: NCI-H460 lung
[45] = tested on: KM12 colon
[46] = tested on: UACC-62 melanoma
[47] = tested on: HL-60(TB) leukemia
[48] = tested on: SK-MEL-5 melanoma
[49] = tested on: SN12C renal
[50] = tested on: SK-OV-3 ovarian
[51] = tested on: MALME-3M melanoma
[52] = tested on: NCI/ADR-RES ovarian
[53] = tested on: CCRF-CEM leukemia
[54] = tested on: OVCAR-8 ovarian
[55] = tested on: K-562 leukemia
[56] = tested on: RPMI-8226 leukemia
[57] = tested on: A498 renal
[58] = tested on: U251 CNS

For Cc1cnc(C(=O)NNc2nc3sc4c(c3c(=O)[nH]2)C(C)CCC4)cn1 (stereo unspecified), the GI50 [1] was 1.61 µM, the TGI [1] was over 100 µM and the GI50 [2] was 0.484 µM. For the same compound, the TGI [2] was 29.2 µM, the GI50 [3] was 0.918 µM and the TGI [3] was 10.2 µM. The GI50 [4] was 0.708 µM, the TGI [4] was 6.37 µM and the GI50 [5] was 1.76 µM. For the same compound, the TGI [5] was 8.2 µM, the GI50 [6] was 1.37 µM and the TGI [6] was 29.6 µM. The GI50 [7] was 2.25 µM, the TGI [7] was 43 µM and the GI50 [8] was 0.727 µM. The TGI [8] was 9.52 µM, the GI50 [9] was 3.25 µM and the TGI [9] was 26.6 µM. It also gave a GI50 [10] of 1.99 µM, a TGI [10] of 39.7 µM and a GI50 [11] of 1.84 µM. It also gave a TGI [11] of 62.9 µM, a GI50 [12] of 2.08 µM and a TGI [12] of over 100 µM. The GI50 [13] was 0.259 µM, the TGI [13] was 15.1 µM and the GI50 [14] was 0.891 µM. It also gave a TGI [14] of over 100 µM, a GI50 [15] of 0.506 µM and a TGI [15] of 17.1 µM. For the same compound, the GI50 [16] was 1.23 µM, the TGI [16] was 14 µM and the GI50 [17] was 0.449 µM. The TGI [17] was 12.6 µM, the GI50 [18] was 1.9 µM and the TGI [18] was over 100 µM. For the same compound, the GI50 [19] was 2.62 µM, the TGI [19] was 79.2 µM and the GI50 [20] was 0.414 µM. For the same compound, the TGI [20] was 3.64 µM, the GI50 [21] was 6.64 µM and the TGI [21] was 37.4 µM. For the same compound, the GI50 [22] was 1.43 µM, the TGI [22] was 80.7 µM and the GI50 [23] was 1.7 µM. It also gave a TGI [23] of 12.3 µM, a GI50 [24] of 0.672 µM and a TGI [24] of 17 µM. It also gave a GI50 [25] of 2.08 µM, a TGI [25] of 66.6 µM and a GI50 [26] of 2.97 µM. The TGI [26] was over 100 µM, the GI50 [27] was 0.55 µM and the TGI [27] was 11 µM. For the same compound, the GI50 [28] was 2.03 µM, the TGI [28] was 13.4 µM and the GI50 [29] was 1.19 µM. The TGI [29] was 78.2 µM, the GI50 [30] was 0.676 µM and the TGI [30] was 13.4 µM. It also gave a GI50 [31] of 2.75 µM, a TGI [31] of over 100 µM and a GI50 [32] of 0.759 µM. It also gave a TGI [32] of 15.8 µM, a GI50 [33] of 2.1 µM and a TGI [33] of 15.8 µM. For the same compound, the GI50 [34] was 1.5 µM, the TGI [34] was 18.5 µM and the GI50 [35] was 2.61 µM. The TGI [35] was 11.3 µM, the GI50 [36] was 1.56 µM and the TGI [36] was 13.5 µM. It also gave a GI50 [37] of 0.411 µM, a TGI [37] of 23.6 µM and a GI50 [38] of 4 µM. The TGI [38] was 84.4 µM, the GI50 [39] was 0.273 µM and the TGI [39] was 17.5 µM. The GI50 [40] was 1.29 µM, the TGI [40] was over 100 µM and the GI50 [41] was 1.63 µM. For the same compound, the TGI [41] was 20.8 µM, the GI50 [42] was 1.08 µM and the TGI [42] was 14.6 µM. For the same compound, the GI50 [43] was 1.85 µM, the TGI [43] was 18.1 µM and the GI50 [44] was 0.545 µM. The TGI [44] was 12.9 µM, the GI50 [45] was 0.93 µM and the TGI [45] was 95.6 µM. The GI50 [46] was 0.528 µM, the TGI [46] was 6.93 µM and the GI50 [47] was 2.04 µM. It also gave a TGI [47] of 4.89 µM, a GI50 [48] of 1.04 µM and a TGI [48] of 3.36 µM. For the same compound, the GI50 [49] was 1.17 µM, the TGI [49] was 31.4 µM and the GI50 [50] was 0.524 µM. The TGI [50] was 11.1 µM, the GI50 [51] was 1.72 µM and the TGI [51] was 12.2 µM. The GI50 [52] was 1.78 µM, the TGI [52] was 10.4 µM and the GI50 [53] was 0.671 µM. The TGI [53] was over 100 µM, the GI50 [54] was 0.952 µM and the TGI [54] was 16 µM. For the same compound, the GI50 [55] was 2.66 µM, the TGI [55] was over 100 µM and the GI50 [56] was 3.39 µM. The TGI [56] was over 100 µM, the GI50 [57] was 2.84 µM and the TGI [57] was 16.8 µM. It also gave a GI50 [58] of 0.603 µM and a TGI [58] of over 100 µM.
